Measured values reported in ChEMBL document CHEMBL4814030, “Optimization of ether and aniline based inhibitors of lactate dehydrogenase” (Bioorg Med Chem Lett, 2021).
pIC50, pKd: −log10 of the molar value. Converted amounts (≈) assume the structure as drawn.

Experiments:
[1] = target: T1, L-lactate dehydrogenase A chain (Homo sapiens, UniProt P00338); test: Inhibition of recombinant human LDHA using sodium pyruvate as substrate preincubated for 5 mins followed by diaphorase/resazurin addition and measured after 20 mins by fluorescence based assay
[2] = target: T1, L-lactate dehydrogenase A chain; test: Inhibition of LDHA in human MIA PaCa2 cells assessed as reduction in lactate production incubated for 2 hrs by fluorescence based assay; type: cell-based, MIA PaCa-2
A673 = test: Cytotoxicity against human A673 cells assessed as reduction in cell viability incubated for 48 hrs by cell titer glo assay; type: functional, cell-based; conditions: A673, 48 h
MIA PaCa-2 = test: Cytotoxicity against human MIA PaCa-2 cells assessed as reduction in cell viability incubated for 48 hrs by cell titer glo assay; type: functional, cell-based; conditions: MIA PaCa-2, 48 h
[3] = target: T1, L-lactate dehydrogenase A chain; test: Inhibition of LDHA in human A673 cells assessed as reduction in lactate production incubated for 2 hrs by fluorescence based assay; type: cell-based
[4] = target: T1, L-lactate dehydrogenase A chain; test: Binding affinity to LDHA (unknown origin) by SPR analysis
[5] = Metabolic stability in rat microsomes assessed as half life; type: ADME, Microsome
[6] = Permeability of compound by PAMPA; type: ADME; conditions: read-out: permeability
[7] = Kinetic solubility of compound; type: physicochemical; conditions: read-out: Kinetic_solubility

Row | SMILES | pIC50 [1] | pIC50 [2] | pIC50 [3] | pKd [4] | t1/2 [5] | Papp [6] | solubility kinetic [7] | pIC50 (A673) | pIC50 (MIA PaCa-2)
1 | NS(=O)(=O)c1ccc(Cc2c(-c3cccc(N4CCC(F)(F)CC4)c3)nn(-c3nc(C(=O)O)cs3)c2CC2CC2)cc1F | 7.77 | 5.06 | – | – | – | – | – | – | –
2 | NS(=O)(=O)c1ccc(Cc2cn(-c3nc(C(=O)O)cs3)nc2-c2cccc(OCc3cccnc3)c2)cc1 | 7.11 | < 4.24 | – | – | – | – | – | – | –
3 | COc1cc(-c2nn(-c3nc(C(=O)O)cs3)c(CC3CC3)c2Cc2ccc(S(N)(=O)=O)cc2)ccc1F | 8.10 | 5.24 | – | – | – | – | – | – | –
4 | NS(=O)(=O)c1ccc(Cc2c(-c3ccc(F)c(Oc4ccccc4)c3)nn(-c3nc(C(=O)O)cs3)c2CC2CC2)cc1 | 7.47 | 5.77 | – | – | – | – | – | – | –
5 | NS(=O)(=O)c1ccc(Cc2c(-c3ccc(F)c(OCc4ccc(F)cc4)c3)nn(-c3nc(C(=O)O)cs3)c2CC2CC2)cc1 | 7.08 | 5.48 | – | – | – | – | – | – | –
6 | NS(=O)(=O)c1ccc(Cc2c(-c3ccc(F)c(C(=O)N4CCCC4)c3)nn(-c3nc(C(=O)O)cs3)c2CC2CC2)cc1F | 6.81 | 4.70 | 4.78 | – | > 30 min | 5.7 ×10⁻⁶ cm/s | > 93 µg/mL | < 4.30 | 5.18
7 | NS(=O)(=O)c1ccc(Cc2c(-c3cccc(OC4CCCC4)c3)nn(-c3nc(C(=O)O)cs3)c2CC2CC2)cc1F | 7.89 | 6.15 | – | – | – | – | – | – | –
8 | COc1cccc(-c2nn(-c3nc(C(=O)O)cs3)cc2Cc2ccc(S(N)(=O)=O)cc2)c1 | 7.05 | < 4.24 | – | – | – | – | – | – | –
9 | NS(=O)(=O)c1ccc(Cc2c(-c3cccc(N4CCCC(C(F)(F)F)C4)c3)nn(-c3nc(C(=O)O)cs3)c2CC2CC2)cc1F (stereo not given) | 7.23 | 5.16 | – | – | – | – | – | – | –
10 | NS(=O)(=O)c1ccc(Cc2c(-c3cccc(OCc4ccccc4)c3)nn(-c3nc(C(=O)O)cs3)c2CC2CC2)cc1F | 7.72 | 6.16 | 6.23 | 10.80 | 2.8 min | 1.1 ×10⁻⁶ cm/s | 72.4 µg/mL (≈ 117 µM) | 6.38 | 5.85
11 | NS(=O)(=O)c1ccc(Cc2c(-c3ccc(F)c(N4CCCC4=O)c3)nn(-c3nc(C(=O)O)cs3)c2CC2CC2)cc1F | 6.95 | 5.22 | – | – | – | – | – | – | –
12 | Cc1ccc(COc2cccc(-c3nn(-c4nc(C(=O)O)cs4)cc3Cc3ccc(S(N)(=O)=O)cc3)c2)cc1 | 7.41 | 5.12 | – | – | – | – | – | – | –
13 | NS(=O)(=O)c1ccc(Cc2c(-c3cccc(Oc4cccc(F)c4)c3)nn(-c3nc(C(=O)O)cs3)c2CC2CC2)cc1 | 5.97 | 4.72 | – | – | – | – | – | – | –
14 | NS(=O)(=O)c1ccc(Cc2c(-c3ccc(F)c(Oc4ccc(C(F)(F)F)cc4)c3)nn(-c3nc(C(=O)O)cs3)c2CC2CC2)cc1F | 7.15 | 5.96 | – | – | – | – | – | – | –
15 | CC(C)N1CC2(CN(c3cc(-c4nn(-c5nc(C(=O)O)cs5)c(CC5CC5)c4Cc4ccc(S(N)(=O)=O)c(F)c4)ccc3F)C2)C1 | 7.43 | 4.62 | – | – | – | – | – | – | –
16 | NS(=O)(=O)c1ccc(Cc2c(-c3cccc(N4CCC(C(F)(F)F)CC4)c3)nn(-c3nc(C(=O)O)cs3)c2CC2CC2)cc1F | 7.33 | 5.62 | – | – | – | – | – | – | –
17 | NS(=O)(=O)c1ccc(Cc2c(-c3ccc(F)c(OCC4CC4(F)F)c3)nn(-c3nc(C(=O)O)cs3)c2CC2CC2)cc1F (stereo not given) | 8.30 | 5.85 | 5.96 | 11.10 | > 30 min | 4.9 ×10⁻⁶ cm/s | 76.1 µg/mL (≈ 120 µM) | 6.05 | 5.62
18 | NS(=O)(=O)c1ccc(Cc2c(-c3cccc(N4CCC(F)(F)C4)c3)nn(-c3nc(C(=O)O)cs3)c2CC2CC2)cc1F | 7.82 | 5.38 | – | – | – | – | – | – | –
19 | NS(=O)(=O)c1ccc(Cc2c(-c3cccc(Nc4ccccc4)c3)nn(-c3nc(C(=O)O)cs3)c2CC2CC2)cc1 | 6.50 | 5.17 | 5.51 | 8.82 | 6 min | 4.4 ×10⁻⁶ cm/s | 49.3 µg/mL (≈ 84.2 µM) | 4.46 | 4.67
20 | NS(=O)(=O)c1ccc(Cc2c(-c3cccc(N4CCCC(F)(F)C4)c3)nn(-c3nc(C(=O)O)cs3)c2CC2CC2)cc1F | 7.74 | 5.07 | – | – | – | – | – | – | –
21 | NS(=O)(=O)c1ccc(Cc2c(-c3ccc(F)c(Oc4ccc(F)cc4)c3)nn(-c3nc(C(=O)O)cs3)c2CC2CC2)cc1F | 7.39 | 5.77 | – | – | – | – | – | – | –

Further compounds by rising pIC50 [1], results first:

Row | pIC50 [1] | pIC50 [2] | pIC50 [3] | pKd [4] | t1/2 [5] | Papp [6] | solubility kinetic [7] | SMILES | pIC50 (A673) | pIC50 (MIA PaCa-2)
22 | 7.54 | 5.11 | – | – | – | – | – | NS(=O)(=O)c1ccc(Cc2cn(-c3nc(C(=O)O)cs3)nc2-c2cccc(OCC3CCCC3)c2)cc1 | – | –
23 | 7.57 | 6.01 | – | – | – | – | – | NS(=O)(=O)c1ccc(Cc2c(-c3ccc(F)c(Oc4cccc(F)c4)c3)nn(-c3nc(C(=O)O)cs3)c2CC2CC2)cc1F | – | –
24 | 7.57 | 4.63 | 5.03 | 9.36 | > 30 min | 1.6 ×10⁻⁶ cm/s | > 88 µg/mL | NS(=O)(=O)c1ccc(Cc2c(-c3cccc(N4CCOCC4)c3)nn(-c3nc(C(=O)O)cs3)c2CC2CC2)cc1F | 4.69 | 4.73
25 | 7.59 | 5.21 | – | – | – | – | – | NS(=O)(=O)c1ccc(Cc2cn(-c3nc(C(=O)O)cs3)nc2-c2cccc(OCc3cccc(F)c3)c2)cc1 | – | –
26 | 7.59 | 6.06 | 6.26 | 8.96 | 6.2 min | 13 ×10⁻⁶ cm/s | 24 µg/mL (≈ 37.7 µM) | Cc1ccc(Oc2cc(-c3nn(-c4nc(C(=O)O)cs4)c(CC4CC4)c3Cc3ccc(S(N)(=O)=O)c(F)c3)ccc2F)cc1 | 6.26 | 5.68
27 | 7.64 | 6.00 | 5.96 | 12.00 | > 30 min | 12 ×10⁻⁶ cm/s | 53.2 µg/mL (≈ 76.6 µM) | NS(=O)(=O)c1ccc(Cc2c(-c3ccc(F)c(OCc4ccc(C(F)(F)F)o4)c3)nn(-c3nc(C(=O)O)cs3)c2CC2CC2)cc1F | 6.36 | 5.68
28 | 7.64 | < 4.24 | – | – | – | – | – | NS(=O)(=O)c1ccc(Cc2cn(-c3nc(C(=O)O)cs3)nc2-c2cccc(OCc3ccccn3)c2)cc1 | – | –
29 | 7.66 | 6.17 | 6.14 | 9.04 | < 1 min | 2.9 ×10⁻⁶ cm/s | 10.7 µg/mL (≈ 16.3 µM) | NS(=O)(=O)c1ccc(Cc2c(-c3ccc(F)c(OCc4cccc(F)c4)c3)nn(-c3nc(C(=O)O)cs3)c2CC2CC2)cc1F | 6.26 | 5.68
30 | 7.66 | 5.49 | – | – | – | – | – | NS(=O)(=O)c1ccc(Cc2c(-c3ccc(F)c(C(=O)N4CCOCC4)c3)nn(-c3nc(C(=O)O)cs3)c2CC2CC2)cc1F | – | –
31 | 7.68 | 5.27 | – | – | – | – | – | COc1cccc(COc2cccc(-c3nn(-c4nc(C(=O)O)cs4)cc3Cc3ccc(S(N)(=O)=O)cc3)c2)c1 | – | –
32 | 7.77 | 5.03 | – | – | – | – | – | NS(=O)(=O)c1ccc(Cc2cn(-c3nc(C(=O)O)cs3)nc2-c2cccc(Oc3ccccc3)c2)cc1 | – | –
33 | 8.10 | 5.04 | 5.33 | – | 14.9 min | 8.7 ×10⁻⁶ cm/s | 81 µg/mL (≈ 122 µM) | NS(=O)(=O)c1ccc(Cc2c(-c3ccc(F)c(C(=O)NCc4ccccc4)c3)nn(-c3nc(C(=O)O)cs3)c2CC2CC2)cc1F | 5.29 | 4.80
34 | 8.10 | 5.68 | 5.72 | 11.40 | > 30 min | 5.8 ×10⁻⁶ cm/s | > 87 µg/mL | NS(=O)(=O)c1ccc(Cc2c(-c3ccc(F)c(OC4CC4)c3)nn(-c3nc(C(=O)O)cs3)c2CC2CC2)cc1F | 5.82 | 5.24
35 | 8.15 | 5.30 | 5.64 | – | > 30 min | 6.4 ×10⁻⁶ cm/s | > 98 µg/mL | NS(=O)(=O)c1ccc(Cc2c(-c3ccc(F)c(NC(=O)c4ccccc4)c3)nn(-c3nc(C(=O)O)cs3)c2CC2CC2)cc1F | 5.28 | 4.76
36 | 8.22 | 4.93 | – | – | – | – | – | CC(C)(C)NC(=O)c1cc(-c2nn(-c3nc(C(=O)O)cs3)c(CC3CC3)c2Cc2ccc(S(N)(=O)=O)c(F)c2)ccc1F | – | –
37 | 8.30 | 5.54 | – | – | – | – | – | NS(=O)(=O)c1ccc(Cc2c(-c3ccc(F)c(OCC4CCCO4)c3)nn(-c3nc(C(=O)O)cs3)c2CC2CC2)cc1F (stereo not given) | – | –
38 | 8.30 | 5.52 | – | – | – | – | – | NS(=O)(=O)c1ccc(Cc2c(-c3ccc(F)c(OCC4CCOC4)c3)nn(-c3nc(C(=O)O)cs3)c2CC2CC2)cc1F (stereo not given) | – | –
